Test in all cases: UV-visible spectral titration, difference spectra, quadratic fit
Assay type in all cases: binding

The target of test [1] is T1, cytochrome P450 OleP (Streptomyces antibioticus, UniProt Q59819, E89Y).
T1 construct: recombinant His-tagged OleP mutants from pET28b(+)-OleP, expressed in E. coli BL21(DE3), monomer, heme-containing
T1 sequence (Q59819 1-407 E89Y): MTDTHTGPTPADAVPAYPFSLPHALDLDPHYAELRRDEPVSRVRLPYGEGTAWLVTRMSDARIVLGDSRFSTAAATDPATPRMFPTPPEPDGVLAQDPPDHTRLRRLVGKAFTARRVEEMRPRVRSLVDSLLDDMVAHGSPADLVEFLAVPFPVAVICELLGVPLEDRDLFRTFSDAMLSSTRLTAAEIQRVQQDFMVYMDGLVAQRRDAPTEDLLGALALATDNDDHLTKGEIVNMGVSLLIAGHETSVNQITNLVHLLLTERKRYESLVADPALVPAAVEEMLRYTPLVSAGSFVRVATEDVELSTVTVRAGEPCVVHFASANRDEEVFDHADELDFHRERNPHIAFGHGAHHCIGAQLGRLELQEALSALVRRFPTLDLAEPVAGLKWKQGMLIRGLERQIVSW

The target of test [2] is T2, cytochrome P450 OleP (Streptomyces antibioticus, UniProt Q59819, S240Y).
T2 construct: recombinant His-tagged OleP mutants from pET28b(+)-OleP, expressed in E. coli BL21(DE3), monomer, heme-containing
T2 sequence (Q59819 1-407 S240Y): T1 sequence (Q59819 1-407 E89Y)

For test [3], the target named is T3, cytochrome P450 OleP (Streptomyces antibioticus, UniProt Q59819, G92W).
T3 construct: recombinant His-tagged OleP mutants from pET28b(+)-OleP, expressed in E. coli BL21(DE3), monomer, heme-containing
T3 sequence (Q59819 1-407 G92W): T1 sequence (Q59819 1-407 E89Y)

The structures appear in SMILES notation.

As for `CC[C@H]1OC(=O)[C@H](C)[C@@H](O)[C@H](C)[C@@H](O)[C@@H](C)C[C@@H](C)C(=O)[C@H](C)[C@@H](O)[C@H]1C` [6DEB], the Kd (usually a measure of binding affinity in units of concentration) on cytochrome P450 OleP [1] was 8500 ± 800 nM; at cytochrome P450 OleP [2] it was 700 ± 100 nM; on cytochrome P450 OleP [3], 1200 ± 100 nM.

The values above are taken from article PMC8774231, “Point Mutations at a Key Site Alter the Cytochrome P450 OleP Structural Dynamics” (Biomolecules, 2021).
